This is an account of results in PubChem BioAssay AID200 (DTP/NCI, 2004).

The structures appear in SMILES notation. Where “and” joins values, the source holds several entries; their conditions need not be identical. Equal entries are not always repeated. Toxic doses and inconclusive results are not listed.

In the experiment the test system is B6C3F1 mice, B16 melanoma ip, median survival T/C. Description: NCI In Vivo Anticancer Drug Screen. Data for tumor model B16 Melanoma (intraperitoneal) in B6C3F1 mice. Particulars: endpoint: median survival time, schedule: Q01DX009 (ip), higher = longer survival. The essentials:
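Mice bearing transplanted tumor were dosed with compound or vehicle, and survival was recorded. Activity is expressed as the treated-group measurement (T) divided by the vehicle control measurement (C).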

The mark [1] stands for this setting: dose: 12.5 mg/kg/injection, vehicle: suspension in saline.
The mark [2] stands for this setting: dose: 25.0 mg/kg/injection, vehicle: suspension in saline.
Where [3] appears, read: dose: 50.0 mg/kg/injection, vehicle: suspension in saline.
The mark [4] stands for this setting: dose: 100.0 mg/kg/injection, vehicle: suspension in saline.
The mark [5] stands for this setting: dose: 6.25 mg/kg/injection, vehicle: saline.
Where [6] appears, read: dose: 12.5 mg/kg/injection, vehicle: saline.
Where [7] appears, read: dose: 25.0 mg/kg/injection, vehicle: saline.
Setting [8] is: dose: 25.0 mg/kg/injection, vehicle: Klucel (hydroxypropylcellulose) (HPC).
The mark [9] stands for this setting: dose: 50.0 mg/kg/injection, vehicle: Klucel (hydroxypropylcellulose) (HPC).
The mark [10] stands for this setting: dose: 100.0 mg/kg/injection, vehicle: Klucel (hydroxypropylcellulose) (HPC).
Where [11] appears, read: dose: 12.5 mg/kg/injection, vehicle: saline with Tween-80.
Setting [12] is: dose: 25.0 mg/kg/injection, vehicle: saline with Tween-80.
Setting [13] is: dose: 200.0 mg/kg/injection, vehicle: Klucel (hydroxypropylcellulose) (HPC).

Regarding `O=C(O)Cc1cccc2c(=O)cc(-c3ccccc3)oc12`, the T/C runs as follows: under setting [1], 109 % of control and 103 % of control; under setting [2], 115 % of control and 123 % of control; under setting [3], 172 % of control; under setting [4], 152 % of control and 163 % of control.

For `Brc1c(NC2=NCCN2)ccc2nccnc12`, the T/C by setting is: (dose: 1.56 mg/kg/injection, vehicle: saline) 100 % of control; (dose: 3.12 mg/kg/injection, vehicle: saline) 96 % of control; under setting [5], 102 % of control; under setting [6], 94 % of control and 106 % of control; under setting [7], 109 % of control and 102 % of control; (dose: 50.0 mg/kg/injection, vehicle: saline) 112 % of control and 104 % of control.

For `CCOC(OCC)C(=O)OCC(=O)[C@]1(O)Cc2c(O)c3c(c(O)c2[C@@H](OC2CC(N)C(O)C(C)O2)C1)C(=O)c1c(OC)cccc1C3=O` (stereo not given in full), the T/C runs as follows: (dose: 0.12 mg/kg/injection, vehicle: water) 155 % of control; (dose: 0.13 mg/kg/injection, vehicle: water) 165 % of control; (dose: 0.25 mg/kg/injection, vehicle: water) 177 % of control and 182 % of control; (dose: 0.5 mg/kg/injection, vehicle: water) 208 % of control and 285 % of control; (dose: 1.0 mg/kg/injection, vehicle: water) 189 % of control and 285 % of control; (dose: 2.0 mg/kg/injection, vehicle: water) 212 % of control and 285 % of control. Further, the T/C (dose: 4.0 mg/kg/injection, vehicle: water) was 285 % of control.

As to `CC(C)(C)OC(=O)NC(CC(=O)OCc1ccccc1)C(=O)ON1C(=O)CCC1=O` (stereo not given), the T/C runs as follows: under setting [8], 93 % of control; under setting [9], 91 % of control; under setting [10], 95 % of control.

With `C=C1C(=O)C23[C@H](O)C1CC[C@H]2[C@]12COC3(O)[C@@H](O)[C@@H]1C(C)(C)CC[C@@H]2O`, the T/C was 98 % of control (dose: 1.56 mg/kg/injection, vehicle: saline with Tween-80); 106 % of control (dose: 3.12 mg/kg/injection, vehicle: saline with Tween-80); 97 % of control (dose: 4.5 mg/kg/injection, vehicle: Klucel (hydroxypropylcellulose) (HPC)); 115 % of control (dose: 6.25 mg/kg/injection, vehicle: saline with Tween-80); 93 % of control (dose: 9.0 mg/kg/injection, vehicle: Klucel (hydroxypropylcellulose) (HPC)); 108 % of control under setting [11]. In addition, the T/C by setting is: (dose: 18.0 mg/kg/injection, vehicle: Klucel (hydroxypropylcellulose) (HPC)) 99 % of control; under setting [12], 98 % of control.

Regarding `[Cl][Pt+2][Cl].[NH-]c1ccccc1[NH-]`, the T/C is 99 % of control (dose: 0.63 mg/kg/injection, vehicle: saline with Tween-80); 111 % of control (dose: 1.25 mg/kg/injection, vehicle: saline with Tween-80); 150 % of control (dose: 5.0 mg/kg/injection, vehicle: saline with Tween-80).

With `Nc1ncnc2c1ncn2C1OC(COP(=O)(O)OC2C(O)C(COP(=O)(O)OC3C(O)C(COP(=O)(O)OP(=O)(O)OP(=O)(O)O)OC3n3cnc4c(N)ncnc43)OC2n2cnc3c(N)ncnc32)C(O)C1O` (stereo not given), the T/C (dose: 0.12 mg/kg/injection, vehicle: distilled water + Tween-80 + alcohol) was 88 % of control; the T/C (dose: 0.25 mg/kg/injection, vehicle: distilled water + Tween-80 + alcohol) is 91 % of control; the T/C (dose: 0.5 mg/kg/injection, vehicle: distilled water + Tween-80 + alcohol) was 94 % of control; the T/C (dose: 1.0 mg/kg/injection, vehicle: distilled water + Tween-80 + alcohol) was 98 % of control.

`CCOc1ccc(NC(=O)C(C(C)N2CCCCC2)N2CCCCC2)cc1` (stereo not given): the T/C by setting is: under setting [11], 102 % of control; under setting [12], 94 % of control; (dose: 50.0 mg/kg/injection, vehicle: saline with Tween-80) 93 % of control.

On to `CCCCCCCCCCCCOCCCOP(=O)([O-])OCC[N+](C)(C)C`, for which the T/C (dose: 3.13 mg/kg/injection, vehicle: saline) was 100 % of control; the T/C under setting [5] is 100 % of control; the T/C under setting [6] was 100 % of control; the T/C under setting [7] is 91 % of control.

For the compound `CNC[C@@H](O)c1ccc(O)c(O)c1`, the T/C runs as follows: (dose: 0.75 mg/kg/injection, vehicle: suspension in saline) 114 % of control; (dose: 1.5 mg/kg/injection, vehicle: suspension in saline) 115 % of control; (dose: 3.0 mg/kg/injection, vehicle: suspension in saline) 99 % of control.

With `COc1ccc2[nH]c3ccc4cc[n+](CCN5CCC(C6CCN(CC[n+]7ccc8ccc9[nH]c%10ccc(OC)cc%10c9c8c7)CC6)CC5)cc4c3c2c1`, the T/C runs as follows: (dose: 6.0 mg/kg/injection, vehicle: water) 155 % of control; (dose: 12.0 mg/kg/injection, vehicle: water) 158 % of control; (dose: 12.5 mg/kg/injection, vehicle: Klucel (hydroxypropylcellulose) (HPC)) 155 % of control; under setting [8], 203 % of control; (dose: 25.0 mg/kg/injection, vehicle: water) 177 % of control; under setting [9], 192 % of control. Moreover, the T/C runs as follows: (dose: 50.0 mg/kg/injection, vehicle: water) 168 % of control; under setting [10], 167 % of control; (dose: 100.0 mg/kg/injection, vehicle: water) 197 % of control.

For the compound `NC(=O)CCC(NC(=O)OCc1ccccc1)C(=O)NCC(=O)O` (stereo not given), the T/C by setting is: (dose: 12.0 mg/kg/injection, vehicle: Klucel (hydroxypropylcellulose) (HPC)) 110 % of control; under setting [8], 98 % of control; under setting [9], 118 % of control; under setting [10], 95 % of control; under setting [13], 98 % of control; (dose: 400.0 mg/kg/injection, vehicle: Klucel (hydroxypropylcellulose) (HPC)) 103 % of control.

`O=C(Nc1ccc([N+](=O)[O-])cc1)Nc1nncs1`: the T/C is, setting by setting: (dose: 25.0 mg/kg/injection, vehicle: distilled water + Tween-80) 122 % of control and 103 % of control; (dose: 50.0 mg/kg/injection, vehicle: distilled water + Tween-80) 112 % of control and 113 % of control; (dose: 200.0 mg/kg/injection, vehicle: distilled water + Tween-80) 120 % of control.

For `CN=C(N)c1ccc(N=C(N)c2ccc(C(N)=Nc3ccc(C(N)=NC)cc3)cc2)cc1`, the T/C is 95 % of control (dose: 7.5 mg/kg/injection, vehicle: saline) and 89 % of control (dose: 15.0 mg/kg/injection, vehicle: saline).

Consider `CCC(=O)[O][Bi]([c]1ccccc1)[c]1ccccc1`, for which, under setting [8], the T/C was 92 % of control.

`NC(=S)N/N=C/c1ccc(O)cn1`: the T/C reads like this: under setting [1], 106 % of control; under setting [2], 113 % of control; under setting [3], 119 % of control; under setting [4], 118 % of control.

In the case of `CC12C(=O)C=CCC1=CCC1C2CCC2(O)C(=O)OC3(C)C4CC5(C)C(COC16OC23C5C6=O)C(=O)O4` (stereo not given), the T/C is 93 % of control under setting [10] and 98 % of control under setting [13].

As for `Nc1nc(-c2cccc(S(=O)(=O)O)c2)c([N+](=O)[O-])c(=O)[nH]1`, the T/C reads like this: (dose: 12.88 mg/kg/injection, vehicle: saline) 99 % of control; (dose: 25.75 mg/kg/injection, vehicle: saline) 96 % of control; (dose: 51.5 mg/kg/injection, vehicle: saline) 109 % of control.
